Measurements from ChEMBL document CHEMBL3994622, “Design and synthesis of new RAF kinase-inhibiting antiproliferative quinoline derivatives. Part 2: Diarylurea derivatives” (Eur J Med Chem, 2017).

Legend:
Type in all cases: functional
[1] = system: RPMI-8226; assay: Growth inhibition of human RPMI8226 cells assessed as cell growth at 0.003 uM incubated for 48 hrs by sulforhodamine B assay relative to control; conditions: RPMI-8226, 48 h, read-out: Activity
[2] = system: HOP-62; assay: Growth inhibition of human HOP62 cells assessed as cell growth at 0.003 uM incubated for 48 hrs by sulforhodamine B assay relative to control; conditions: HOP-62, 48 h, read-out: Activity
[3] = system: NCI-H522; assay: Growth inhibition of human NCI-H522 cells assessed as cell growth at 0.003 uM incubated for 48 hrs by sulforhodamine B assay relative to control; conditions: NCI-H522, 48 h, read-out: Activity
[4] = system: A498; assay: Growth inhibition of human A498 cells assessed as cell growth at 0.003 uM incubated for 48 hrs by sulforhodamine B assay relative to control; conditions: A498, 48 h, read-out: Activity
[5] = system: RXF 393; assay: Growth inhibition of human RXF393 cells assessed as cell growth at 0.003 uM incubated for 48 hrs by sulforhodamine B assay relative to control; conditions: RXF 393, 48 h, read-out: Activity
[6] = system: MOLT-4; assay: Growth inhibition of human MOLT4 cells assessed as cell growth at 0.03 uM incubated for 48 hrs by sulforhodamine B assay relative to control; conditions: MOLT-4, 48 h, read-out: Activity
[7] = system: HT-29; assay: Growth inhibition of human HT-29 cells assessed as cell growth at 0.03 uM incubated for 48 hrs by sulforhodamine B assay relative to control; conditions: HT-29, 48 h, read-out: Activity
[8] = system: MDA-MB-435; assay: Growth inhibition of human MDA-MB-435 cells assessed as cell growth at 0.03 uM incubated for 48 hrs by sulforhodamine B assay relative to control; conditions: MDA-MB-435, 48 h, read-out: Activity
[9] = system: OVCAR-3; assay: Growth inhibition of human OVCAR3 cells assessed as cell growth at 0.03 uM incubated for 48 hrs by sulforhodamine B assay relative to control; conditions: OVCAR-3, 48 h, read-out: Activity
[10] = system: T47D; assay: Growth inhibition of human T47D cells assessed as cell growth at 0.03 uM incubated for 48 hrs by sulforhodamine B assay relative to control; conditions: read-out: Activity
[11] = system: HOP-62; assay: Growth inhibition of human HOP62 cells assessed as cell growth at 0.3 uM incubated for 48 hrs by sulforhodamine B assay relative to control; conditions: HOP-62, 48 h, read-out: Activity
[12] = system: MOLT-4; assay: Growth inhibition of human MOLT4 cells assessed as cell growth at 3 uM incubated for 48 hrs by sulforhodamine B assay relative to control; conditions: MOLT-4, 48 h, read-out: Activity
[13] = system: SF-539; assay: Growth inhibition of human SF539 cells assessed as cell growth at 3 uM incubated for 48 hrs by sulforhodamine B assay relative to control; conditions: SF-539, 48 h, read-out: Activity
[14] = system: MDA-MB-435; assay: Growth inhibition of human MDA-MB-435 cells assessed as cell growth at 3 uM incubated for 48 hrs by sulforhodamine B assay relative to control; conditions: MDA-MB-435, 48 h, read-out: Activity
[15] = system: OVCAR-5; assay: Growth inhibition of human OVCAR5 cells assessed as cell growth at 3 uM incubated for 48 hrs by sulforhodamine B assay relative to control; conditions: OVCAR-5, 48 h, read-out: Activity
[16] = system: SN12C; assay: Growth inhibition of human SN12C cells assessed as cell growth at 3 uM incubated for 48 hrs by sulforhodamine B assay relative to control; conditions: read-out: Activity
[17] = system: HCT-15; assay: Growth inhibition of human HCT15 cells assessed as cell growth at 30 uM incubated for 48 hrs by sulforhodamine B assay relative to control; conditions: HCT-15, 48 h, read-out: Activity
[18] = system: OVCAR-5; assay: Growth inhibition of human OVCAR5 cells assessed as cell growth at 30 uM incubated for 48 hrs by sulforhodamine B assay relative to control; conditions: OVCAR-5, 48 h, read-out: Activity
[19] = system: 786-0; assay: Growth inhibition of human 786-0 cells assessed as cell growth at 30 uM incubated for 48 hrs by sulforhodamine B assay relative to control; conditions: 786-0, 48 h, read-out: Activity
[20] = system: UO-31; assay: Growth inhibition of human UO31 cells assessed as cell growth at 30 uM incubated for 48 hrs by sulforhodamine B assay relative to control; conditions: UO-31, 48 h, read-out: Activity
[21] = system: CCRF-CEM; assay: Growth inhibition of human CCRF-CEM cells assessed as cell growth at 0.01 uM incubated for 48 hrs by sulforhodamine B assay relative to control; conditions: read-out: Activity
[22] = system: OVCAR-4; assay: Growth inhibition of human OVCAR4 cells assessed as cell growth at 0.01 uM incubated for 48 hrs by sulforhodamine B assay relative to control; conditions: OVCAR-4, 48 h, read-out: Activity
[23] = system: A498; assay: Growth inhibition of human A498 cells assessed as cell growth at 0.01 uM incubated for 48 hrs by sulforhodamine B assay relative to control; conditions: A498, 48 h, read-out: Activity
[24] = system: CAKI-1; assay: Growth inhibition of human Caki1 cells assessed as cell growth at 0.01 uM incubated for 48 hrs by sulforhodamine B assay relative to control; conditions: CAKI-1, 48 h, read-out: Activity
[25] = system: CCRF-CEM; assay: Growth inhibition of human CCRF-CEM cells assessed as cell growth at 1 uM incubated for 48 hrs by sulforhodamine B assay relative to control; conditions: read-out: Activity
[26] = system: RPMI-8226; assay: Growth inhibition of human RPMI8226 cells assessed as cell growth at 1 uM incubated for 48 hrs by sulforhodamine B assay relative to control; conditions: RPMI-8226, 48 h, read-out: Activity
[27] = system: NCI-H226; assay: Growth inhibition of human NCI-H226 cells assessed as cell growth at 1 uM incubated for 48 hrs by sulforhodamine B assay relative to control; conditions: NCI-H226, 48 h, read-out: Activity
[28] = system: UACC-257; assay: Growth inhibition of human UACC257 cells assessed as cell growth at 1 uM incubated for 48 hrs by sulforhodamine B assay relative to control; conditions: UACC-257, 48 h, read-out: Activity
[29] = system: A498; assay: Growth inhibition of human A498 cells assessed as cell growth at 1 uM incubated for 48 hrs by sulforhodamine B assay relative to control; conditions: A498, 48 h, read-out: Activity
[30] = system: MCF7; assay: Growth inhibition of human MCF7 cells assessed as cell growth at 1 uM incubated for 48 hrs by sulforhodamine B assay relative to control; conditions: MCF7, 48 h, read-out: Activity
[31] = system: Hs-578T; assay: Growth inhibition of human Hs 578T cells assessed as cell growth at 1 uM incubated for 48 hrs by sulforhodamine B assay relative to control; conditions: read-out: Activity
[32] = system: NCI-H23; assay: Growth inhibition of human NCI-H23 cells assessed as cell growth at 10 uM incubated for 48 hrs by sulforhodamine B assay relative to control; conditions: NCI-H23, 48 h, read-out: Activity
[33] = system: Malme-3M; assay: Growth inhibition of human MALME-3M cells assessed as cell growth at 10 uM incubated for 48 hrs by sulforhodamine B assay relative to control; conditions: read-out: Activity
[34] = system: IGROV-1; assay: Growth inhibition of human IGROV1 cells assessed as cell growth at 10 uM incubated for 48 hrs by sulforhodamine B assay relative to control; conditions: IGROV-1, 48 h, read-out: Activity
[35] = system: PC-3; assay: Growth inhibition of human PC3 cells assessed as cell growth at 100 uM incubated for 48 hrs by sulforhodamine B assay relative to control; conditions: PC-3, 48 h, read-out: Activity

## COc1cc2cc(Oc3ccc(NC(=O)Nc4ccc(Cl)c(C(F)(F)F)c4)cc3)c(C)nc2cc1OC
[1]
  growth at 0.003 µM: 100%
[2]
  growth at 0.003 µM: 99%
[3]
  growth at 0.003 µM: 91%
[4]
  growth at 0.003 µM: 91%
[5]
  growth at 0.003 µM: 106%
[6]
  growth at 0.03 µM: 96%
[7]
  growth at 0.03 µM: 100%
[8]
  growth at 0.03 µM: 95%
[9]
  growth at 0.03 µM: 91%
[10]
  growth at 0.03 µM: 94%
[11]
  growth at 0.3 µM: 86%
[12]
  growth at 3 µM: 10%
[13]
  growth at 3 µM: 34%
[14]
  growth at 3 µM: 9%
[15]
  growth at 3 µM: 32%
[16]
  growth at 3 µM: 21%
[17]
  growth at 30 µM: -76%
[18]
  growth at 30 µM: -81%
[19]
  growth at 30 µM: -71%
[20]
  growth at 30 µM: -71%

## COc1cc2cc(Oc3ccc(NC(=O)Nc4cc(C(F)(F)F)cc(C(F)(F)F)c4)cc3)c(C)nc2cc1OC
[21]
  growth at 0.01 µM: 97%
[22]
  growth at 0.01 µM: 85%
[23]
  growth at 0.01 µM: 97%
[24]
  growth at 0.01 µM: 88%
[25]
  growth at 1 µM: 39%
[26]
  growth at 1 µM: 23%
[27]
  growth at 1 µM: 88%
[28]
  growth at 1 µM: 107%
[29]
  growth at 1 µM: 74%
[30]
  growth at 1 µM: 35%
[31]
  growth at 1 µM: 101%
[32]
  growth at 10 µM: -32%
[33]
  growth at 10 µM: -46%
[34]
  growth at 10 µM: -55%
[35]
  growth at 100 µM: -57%

## COc1cc2cc(Oc3ccc(NC(=O)Nc4ccc(Cl)c(Cl)c4)cc3)c(C)nc2cc1OC
[21]
  growth at 0.01 µM: 102%
[22]
  growth at 0.01 µM: 95%
[23]
  growth at 0.01 µM: 82%
[24]
  growth at 0.01 µM: 88%
[25]
  growth at 1 µM: 78%
[26]
  growth at 1 µM: 69%
[27]
  growth at 1 µM: 106%
[28]
  growth at 1 µM: 92%
[29]
  growth at 1 µM: 74%
[30]
  growth at 1 µM: 86%
[31]
  growth at 1 µM: 113%
[32]
  growth at 10 µM: 15%
[33]
  growth at 10 µM: -14%
[34]
  growth at 10 µM: 30%
[35]
  growth at 100 µM: -96%

## Cc1nc2cc(O)c(O)cc2cc1Oc1ccc(NC(=O)Nc2ccc(Cl)c(Cl)c2)cc1
[1]
  growth at 0.003 µM: 93%
[2]
  growth at 0.003 µM: 108%
[3]
  growth at 0.003 µM: 95%
[4]
  growth at 0.003 µM: 85%
[5]
  growth at 0.003 µM: 100%
[6]
  growth at 0.03 µM: 111%
[7]
  growth at 0.03 µM: 103%
[8]
  growth at 0.03 µM: 91%
[9]
  growth at 0.03 µM: 107%
[10]
  growth at 0.03 µM: 102%
[11]
  growth at 0.3 µM: 108%
[12]
  growth at 3 µM: 87%
[13]
  growth at 3 µM: 103%
[14]
  growth at 3 µM: 71%
[15]
  growth at 3 µM: 119%
[16]
  growth at 3 µM: 92%
[17]
  growth at 30 µM: 9%
[18]
  growth at 30 µM: -6%
[19]
  growth at 30 µM: -31%
[20]
  growth at 30 µM: -51%
